Laboratory results taken from publication PMC7765930, “Antiproliferative Phenanthrenes from Juncus tenuis: Isolation and Diversity-Oriented Semisynthetic Modification” (Molecules, 2020).
Where two headings read alike, the source gives them in different places.

Test system: MRC-5 human embryonal lung fibroblast cell line
Test: MTT antiproliferative assay, MRC-5
Type: cell-based
Details: 100–0.19 μM, non-tumoral cells; for IC50: read-out: IC50 (µM) ± SD MRC-5
Procedure: Breast cancer cell line MCF-7 (ATCC® HTB-22) and the drug-resistant subline of the human breast cancer MCF-7 (ECACC 86012803; KCR) were purchased from LGC Promochem (Teddington, UK). Both cell lines were cultured in Eagle’s Minimal Essential Medium (EMEM, containing 4.5 g/L glucose) supplemented with a non-essential amino acid mixture, a selection of vitamins, and 10% heat-inactivated fetal bovine serum. In every third passage, 0.56 µg/mL doxorubicin was added to the medium, in order to maintain the ABCB1 (P-glycoprotein) expression in KCR cells. A2780 human ovarian cancer cell line (ECACC, European Collection of Authentical Cell Culture, Sigma Cat.no. 93112519) was purchased from Merck KGaA (Darmstadt, Germany). […] The human ovarian cancer cell lines were cultured in RPMI 1640 medium supplemented with 10% heat-inactivated fetal bovine serum. […] HeLa (ATCC® CCL-2™) human cervix carcinoma cell line was purchased from LGC Promochem (Teddington, UK). The cells were cultured in Eagle’s Minimal Essential Medium (EMEM, containing 4.5 g/L glucose) supplemented with a non-essential amino acid mixture, a selection of vitamins, and 10% heat-inactivated fetal bovine serum. MRC-5 human embryonal lung fibroblast cell line (ATCC® CCL-171) was purchased from LGC Promochem, Teddington, UK. The cell line was cultured in Eagle’s Minimal Essential Medium (EMEM, containing 4.5 g/L glucose) supplemented with a non-essential amino acid mixture, a selection of vitamins, and 10% heat-inactivated fetal bovine serum. HTB-26 breast adenocarcinoma cell line was purchased from LGC Promochem, Teddington, UK. The cell line was cultured in RPMI 1640 medium supplemented with 10% heat-inactivated fetal bovine serum. T-47D (ATCC® HTB-133™) ductal carcinoma cell line was purchased from LGC Promochem, Teddington, UK. The cells were cultured in RPMI 1640 medium supplemented with 10% heat-inactivated fetal bovine serum, 2 mM L-glutamine, 1 mM Na-pyruvate, and 100 mM Hepes. All of the cells were incubated at 37 °C, in a 5% CO2 and 95% air atmosphere.
The antiproliferative effect of the compounds was determined on human breast (MCF-7, KCR, T47D, and HTB-26), cervical (HeLa), and ovarian (A2780 and A2780cis) cancer cells, and on MRC-5 (human embryonic lung fibroblast) cell lines. The adherent cells were cultured in 96-well flat-bottomed microtiter plates, using EMEM supplemented with 10% heat-inactivated fetal bovine serum or RPMI 1640 supplemented with 10% heat-inactivated fetal bovine serum, respectively. The density of the cells was adjusted to 6 × 10^3 cells in 100 μL per well, the cells were seeded for 24 h at 37 °C, with 5% CO2, and then the medium was removed from the plates, and fresh medium (100 μL per well) was added to the cells. The effects of increasing concentrations of compounds on cell proliferation were tested in 96-well flat-bottomed microtiter plates. The compounds were diluted in the appropriate medium; the dilutions of compounds were performed in separate plates and then added to the cells. The starting concentration of the compounds was 100 μM, and two-fold serial dilution was performed (concentration range: 100–0.19 μM). The culture plates were incubated at 37 °C for 72 h; at the end of the incubation period, 20 μL of MTT (thiazolyl blue tetrazolium bromide, Sigma) solution (from a stock solution of 5 mg/mL) was added to each well. After incubation at 37 °C for 4 h, 100 μL of sodium dodecyl sulfate (SDS) (Sigma) solution (10% in 0.01 M HCI) was added to each well, and the plates were further incubated, at 37 °C, overnight. Cell growth was determined by measuring the optical density (OD) at 540/630 nm, with a Multiscan EX ELISA reader (Thermo Labsystems, Cheshire, WA, USA). Mean IC50 values were obtained by best-fitting the dose-dependent inhibition curves in GraphPadPrism5 program (GraphPad Software version 5.00 for Windows, San Diego, CA, USA) from four parallel experiments for each cell line.

| SMILES | IC50 (Homo sapiens, MRC5, 72 h) [µM] | IC50 (72 h) [µM] | IC50 (µM) ± SD MRC-5 (72 h) |
| --- | --- | --- | --- |
| C=Cc1c(C)c(O)cc2c1-c1ccc(O)c(C)c1CC2 [juncusol] | 40.9 ± 2 | – | – |
| C=CC1=CC(=O)C=C2CCC3=C(C=CC(=O)C3(C)OCC)C12OCC (centres unmarked) [Compound 4a] | 14.3 ± 0.5 | – | – |
| C=CC1=CC(=O)C=C2CCC3=C(C=CC(=O)C3(C)OCC)C12OCC (centres unmarked) [Compound 4b] | – | 23.4 ± 1.3 | – |
| C=Cc1cc(O)cc2c1-c1ccc(O)c(C)c1CC2 [effusol] | 60.1 ± 5.1 | – | – |
| C=CC1=C(C)C(=O)C=C2CCC3=C(C=CC(=O)C3(C)OCC)C21OCC (centres unmarked) [Compound 2b] | – | 57.7 ± 0.3 | – |
| C=CC1=C(C)C(=O)C=C2CCC3=C(C=CC(=O)C3(C)OC)C21OC (centres unmarked) [Compound 1b] | > 100 | – | did not show an antiproliferative effect |
| C=CC1=CC(=O)C=C2CCC3=C(C=CC(=O)C3(C)OC)C12OC (centres unmarked) [Compound 3] | 12.2 ± 0.2 | – | – |
| C=CC1=C(C)C(=O)C=C2CCC3=C(C=CC(=O)C3(C)OCC)C21OCC (centres unmarked) [Compound 2a] | > 100 | – | did not show an antiproliferative effect |
| N.N.[Cl][Pt][Cl] [Cisplatin, cisplatin, reference compound] | – | 0.6 | – |
